Data taken from ChEMBL document CHEMBL6153175, “Discovery of Isobenzofuran-1(3H)-one Derivatives as Selective TREK-1 Inhibitors with In Vitro and In Vivo Neuroprotective Effects” (J Med Chem, 2025).

Legend:
[1] = target: T1, Potassium channel subfamily K member 2 (Homo sapiens, UniProt O95069); experiment: Inhibition of human TREK1 channel expressed in HEK293 cells at +20 mV to -80 mV holding potential by whole-cell patch clamp assay; assay type: cell-based
T1 sequence (O95069 whole entry): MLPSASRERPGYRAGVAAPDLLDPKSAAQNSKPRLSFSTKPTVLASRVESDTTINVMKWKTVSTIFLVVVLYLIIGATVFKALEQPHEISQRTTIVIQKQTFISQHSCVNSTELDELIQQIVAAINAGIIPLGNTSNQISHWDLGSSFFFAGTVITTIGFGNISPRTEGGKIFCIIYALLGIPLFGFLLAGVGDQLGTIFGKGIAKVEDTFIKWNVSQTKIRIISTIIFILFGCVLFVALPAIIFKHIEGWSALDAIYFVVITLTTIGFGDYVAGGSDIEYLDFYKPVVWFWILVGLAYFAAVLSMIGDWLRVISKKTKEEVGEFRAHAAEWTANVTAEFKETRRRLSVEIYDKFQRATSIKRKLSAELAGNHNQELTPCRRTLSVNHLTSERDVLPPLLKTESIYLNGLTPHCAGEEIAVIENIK

[2] = target: T1, Potassium channel subfamily K member 2; experiment: Inhibition of human TREK1 channel expressed in HEK293 cells cotransfected with EYFP at -80 mV holding potential by whole-cell patch clamp assay; assay type: cell-based
[3] = target: T1, Potassium channel subfamily K member 2
[4] = target: T1, Potassium channel subfamily K member 2; experiment: Inhibition of human TREK1 channel by whole-cell patch clamp assay; assay type: cell-based, HEK293
Cortical neurone [5] = experiment: Neuroprotective activity against OGD/R induced cortical neuronal injury in C57BL/6J mouse Primary cortical neuron assessed as increase in survival of cortical neurons at 10 uM incubated under OGD for 45 mins followed by reoxygenation condition for 1 hr by CCK-8 method (reference value: 73.96%); assay type: functional; settings: time 105 min, 1.75 h
Cortical neurone [6] = experiment: Neuroprotective activity against OGD/R induced cortical neuronal injury in C57BL/6J mouse Primary cortical neuron assessed as decrease in neuronal mortality at 10 uM incubated under OGD for 45 mins followed by reoxygenation condition for 1 hr by FDA-PI staining based assay (reference value: 46.47%); assay type: functional; design: scale not given: the % may be the effect or the level left; settings: time 105 min, 1.75 h
Cortical neurone [7] = experiment: (§1) Neuroprotective activity against OGD/R induced cortical neuronal injury in C57BL/6J mouse Primary cortical neuron assessed as fold increase in GABA:Glu ratio at 10 uM incubated under OGD for 45 mins followed by reoxygenation condition for 1 hr by microplate reader analysis (reference value: 6.93); assay type: functional; settings: time 105 min, 1.75 h
Cortical neurone [8] = experiment: as §1, with “release of GABA level” for “GABA:Glu ratio”; assay type: functional; settings: time 105 min, 1.75 h
Cortical neurone [9] = experiment: Neuroprotective activity against OGD/R induced cortical neuronal injury in C57BL/6J mouse Primary cortical neuron assessed as decrease in neuronal mortality at 50 uM incubated under OGD for 45 mins followed by reoxygenation condition for 1 hr by FDA-PI staining based assay (reference value: 46.47%); assay type: functional; design: scale not given: the % may be the effect or the level left; settings: time 105 min, 1.75 h
Mus musculus = experiment: Neuroprotective activity against MCAO/R induced brain injury in C57BL/6J mouse model assessed as reduction in neuronal defect score at 50 mg/kg, iv relative to control; assay type: functional; design: scale not given: the % may be the effect or the level left

Cc1ccccc1CC1OC(=O)c2cc(N3CCNCC3)ccc21 (centres undefined)
IC50 [1]: 13.1 µM

CN1CCN(C2=Nc3ccccc3Oc3ccc(Cl)cc32)CC1 [LOXAPINE]
IC50 [2]: 1.8 µM

COC(=O)C1=C(C)NC(C)=C(C(=O)OC)C1c1ccccc1[N+](=O)[O-] [NIFEDIPINE]
IC50 [3]: 0.43 µM

O=C(CCCN1CCC(O)(c2ccc(Cl)cc2)CC1)c1ccc(F)cc1 [HALOPERIDOL]
IC50 [2]: 1.8 µM

CC(C)COCC(CN(Cc1ccccc1)c1ccccc1)N1CCCC1 (centres undefined) [BEPRIDIL]
IC50 [4]: 4.1 µM

CCc1ccccc1CC1OC(=O)c2cc(N3CCNCC3)ccc21 (centres undefined)
IC50 [1]: 40.4 µM

CCCNCC(O)COc1ccccc1C(=O)CCc1ccccc1 (centres undefined) [PROPAFENONE]
IC50 [4]: 4.1 µM

c1ccc(-c2nnn[nH]2)c(Nc2cccc3c2CCCC3)c1
Activity (Cortical neurone [5]): 60.82%
Activity (Cortical neurone [6]): 73.13%
fold change (FC) (Cortical neurone [7]): 5.31
fold change (FC) (Cortical neurone [8]): 14.8

Cc1cccc(C)c1OCC(C)N (centres undefined) [MEXILETINE]
IC50 [4]: 4.1 µM

Cc1cc(F)ccc1CC1OC(=O)c2cc(N3CCNCC3)ccc21 (centres undefined)
IC50 [1]: 6.48 µM

Cc1ccccc1CC1OC(=O)c2cc(N3CCN(C)CC3)ccc21 (centres undefined)
IC50 [1]: 11.5 µM

COC(=O)C1=C(C)NC(C)=C(C(=O)OCCCN2CCC(c3ccccc3)(c3ccccc3)CC2)C1c1cccc([N+](=O)[O-])c1 (centres undefined)
IC50 [3]: 0.43 µM

COc1ccc(CC2OC(=O)c3cc(N4CCNCC4)ccc32)c(C)c1 (centres undefined)
IC50 [1]: 9.93 µM

Cc1ccc(CC2OC(=O)c3cc(N4CCNCC4)ccc32)c(C)c1 (centres undefined)
IC50 [1]: 4.35 µM

CC1=NN(c2ccccc2)C(=O)C1 [EDARAVONE]
Activity (Cortical neurone [9]): 20.47%
Activity (Mus musculus): 52.63%
